Test results taken from patent US20240000872A1, “NOVEL BACTERIOPHAGE THAT LYSES ACINETOBACTER GENUS BACTERIA HAVING RESISTANCE TO ANTIBIOTICS” (priority 2020, published 2024).

Tested on: Acinetobacter baumannii strains
Assay: Antibiotic susceptibility test (CLSI disk diffusion test method, read per CLSI 2016); for antibiotic susceptibility S/I/R: key: ‘S’ means susceptible; ‘I’ means intermediate; ‘R’ means resistant; for antibiotic susceptibility class: key: ‘S’ means susceptible; ‘I’ means intermediate; ‘R’ means resistant; for susceptibility category (S/I/R): key: ‘S’ means susceptible; ‘I’ means intermediate; ‘R’ means resistant
Format: cell-based
Set-up: antibiotic susceptibility test value / susceptibility test value (number given before S/I/R) / antibiotic susceptibility value: unit not given here

Substance: piperacillin-tazobactam
- antibiotic susceptibility class (host strain YMC14/01/C29): R
- antibiotic susceptibility test value (host strain YMC14/01/C29): 128
- antibiotic susceptibility class (host strain YMC14/01/IP122): R
- antibiotic susceptibility test value (host strain YMC14/01/IP122): 128
- antibiotic susceptibility class (host strain YMC14/01/L8): R
- antibiotic susceptibility test value (host strain YMC14/01/L8): 128
- antibiotic susceptibility class (host strain YMC14/01/P31): R
- antibiotic susceptibility test value (host strain YMC14/01/P31): 128
- antibiotic susceptibility class (host strain YMC14/01/P117): R
- antibiotic susceptibility test value (host strain YMC14/01/P117): 128
- antibiotic susceptibility class (host strain YMC14/01/P224): R
- antibiotic susceptibility test value (host strain YMC14/01/P224): 128
- antibiotic susceptibility class (host strain YMC14/01/P727): R
- antibiotic susceptibility test value (host strain YMC14/01/P727): 128
- antibiotic susceptibility class (host strain YMC14/01/P728): R
- antibiotic susceptibility test value (host strain YMC14/01/P728): 128
- antibiotic susceptibility class (host strain YMC14/01/R130): R
- antibiotic susceptibility test value (host strain YMC14/01/R130): 128
- antibiotic susceptibility class (host strain YMC14/01/R160): R
- antibiotic susceptibility test value (host strain YMC14/01/R160): 128
- antibiotic susceptibility class (host strain YMC14/01/R198): R
- antibiotic susceptibility test value (host strain YMC14/01/R198): 128
- antibiotic susceptibility class (host strain YMC14/01/R257): R
- antibiotic susceptibility test value (host strain YMC14/01/R257): 128
- antibiotic susceptibility class (host strain YMC14/01/R270): R
- antibiotic susceptibility test value (host strain YMC14/01/R270): 128
- antibiotic susceptibility class (host strain YMC14/01/R324): R
- antibiotic susceptibility test value (host strain YMC14/01/R324): 128
- antibiotic susceptibility class (host strain YMC14/01/R443): R
- antibiotic susceptibility test value (host strain YMC14/01/R443): 128
- antibiotic susceptibility class (host strain YMC14/01/R451): R
- antibiotic susceptibility test value (host strain YMC14/01/R451): 128
- antibiotic susceptibility class (host strain YMC14/01/R560): R
- antibiotic susceptibility test value (host strain YMC14/01/R560): 128
- antibiotic susceptibility class (host strain YMC14/01/R617): R
- antibiotic susceptibility test value (host strain YMC14/01/R617): 128
- antibiotic susceptibility class (host strain YMC14/01/R671): R
- antibiotic susceptibility test value (host strain YMC14/01/R671): 128
- antibiotic susceptibility class (host strain YMC14/01/R732): R
- antibiotic susceptibility test value (host strain YMC14/01/R732): 128
- antibiotic susceptibility class (host strain YMC14/01/R767): R
- antibiotic susceptibility test value (host strain YMC14/01/R767): 128
- antibiotic susceptibility class (host strain YMC14/01/R904): R
- antibiotic susceptibility test value (host strain YMC14/01/R904): 128
- antibiotic susceptibility class (host strain YMC14/01/R905): R
- antibiotic susceptibility test value (host strain YMC14/01/R905): 128
- antibiotic susceptibility class (host strain YMC14/01/R921): R
- antibiotic susceptibility test value (host strain YMC14/01/R921): 128
- antibiotic susceptibility class (host strain YMC14/01/R941): R
- antibiotic susceptibility test value (host strain YMC14/01/R941): 128
- antibiotic susceptibility class (host strain YMC14/01/R958): R
- antibiotic susceptibility test value (host strain YMC14/01/R958): 128
- antibiotic susceptibility class (host strain YMC14/01/R1006): R
- antibiotic susceptibility test value (host strain YMC14/01/R1006): 128
- antibiotic susceptibility class (host strain YMC14/01/R1199): R
- antibiotic susceptibility test value (host strain YMC14/01/R1199): 128
- antibiotic susceptibility class (host strain YMC14/01/R1659): R
- antibiotic susceptibility test value (host strain YMC14/01/R1659): 128
- antibiotic susceptibility class (host strain YMC14/01/R1722): R
- antibiotic susceptibility test value (host strain YMC14/01/R1722): 128
- antibiotic susceptibility class (host strain YMC14/01/R1752): R
- antibiotic susceptibility test value (host strain YMC14/01/R1752): 128
- antibiotic susceptibility class (host strain YMC14/01/R2429): R
- antibiotic susceptibility test value (host strain YMC14/01/R2429): 128
- antibiotic susceptibility class (host strain YMC14/01/R2572): R
- antibiotic susceptibility test value (host strain YMC14/01/R2572): 128
- antibiotic susceptibility class (host strain YMC14/01/R2855): R
- antibiotic susceptibility test value (host strain YMC14/01/R2855): 128
- antibiotic susceptibility class (host strain YMC14/01/R2945): R
- antibiotic susceptibility test value (host strain YMC14/01/R2945): 128
- antibiotic susceptibility class (host strain YMC14/01/R3007): R
- antibiotic susceptibility test value (host strain YMC14/01/R3007): 128
- antibiotic susceptibility class (host strain YMC14/01/R3129): R
- antibiotic susceptibility test value (host strain YMC14/01/R3129): 128
- antibiotic susceptibility class (host strain YMC14/01/R3317): R
- antibiotic susceptibility test value (host strain YMC14/01/R3317): 128
- antibiotic susceptibility class (host strain YMC14/01/R3474): R
- antibiotic susceptibility test value (host strain YMC14/01/R3474): 128
- antibiotic susceptibility class (host strain YMC14/01/R3574): R
- antibiotic susceptibility test value (host strain YMC14/01/R3574): 128
- antibiotic susceptibility class (host strain YMC14/01/U313): R
- antibiotic susceptibility test value (host strain YMC14/01/U313): 128
- antibiotic susceptibility class (host strain YMC14/01/U318): R
- antibiotic susceptibility test value (host strain YMC14/01/U318): 128
- antibiotic susceptibility class (host strain YMC14/02/L18): R
- antibiotic susceptibility test value (host strain YMC14/02/L18): 128
- antibiotic susceptibility class (host strain YMC14/02/P47): R
- antibiotic susceptibility test value (host strain YMC14/02/P47): 128
- antibiotic susceptibility class (host strain YMC14/02/R1860): R
- antibiotic susceptibility test value (host strain YMC14/02/R1860): 128
- antibiotic susceptibility class (host strain YMC14/02/R2417): R
- antibiotic susceptibility test value (host strain YMC14/02/R2417): 128
- antibiotic susceptibility class (host strain YMC14/02/R2599): R
- antibiotic susceptibility test value (host strain YMC14/02/R2599): 128
- antibiotic susceptibility class (host strain YMC14/02/R2668): R
- antibiotic susceptibility test value (host strain YMC14/02/R2668): 128
- antibiotic susceptibility class (host strain YMC14/02/R2758): R
- antibiotic susceptibility test value (host strain YMC14/02/R2758): 128
- antibiotic susceptibility class (host strain YMC14/02/R2781): R
- antibiotic susceptibility test value (host strain YMC14/02/R2781): 128
- antibiotic susceptibility class (host strain YMC14/02/R3106): R
- antibiotic susceptibility test value (host strain YMC14/02/R3106): 128
- antibiotic susceptibility class (host strain YMC14/02/R3419): R
- antibiotic susceptibility test value (host strain YMC14/02/R3419): 128
- antibiotic susceptibility class (host strain YMC14/02/U1607): R
- antibiotic susceptibility test value (host strain YMC14/02/U1607): 128
- antibiotic susceptibility class (host strain YMC14/03/L9): R
- antibiotic susceptibility test value (host strain YMC14/03/L9): 128
- antibiotic susceptibility class (host strain YMC14/03/P471): R
- antibiotic susceptibility test value (host strain YMC14/03/P471): 128
- antibiotic susceptibility class (host strain YMC14/03/R122): R
- antibiotic susceptibility test value (host strain YMC14/03/R122): 128
- antibiotic susceptibility class (host strain YMC14/03/R217): R
- antibiotic susceptibility test value (host strain YMC14/03/R217): 128
- antibiotic susceptibility class (host strain YMC14/03/R380): R
- antibiotic susceptibility test value (host strain YMC14/03/R380): 128
- antibiotic susceptibility class (host strain YMC14/03/R618): R
- antibiotic susceptibility test value (host strain YMC14/03/R618): 128
- antibiotic susceptibility class (host strain YMC14/03/R2144): R
- antibiotic susceptibility test value (host strain YMC14/03/R2144): 128
- antibiotic susceptibility class (host strain YMC14/03/U4616): R
- antibiotic susceptibility test value (host strain YMC14/03/U4616): 128
- antibiotic susceptibility class (host strain YMC14/04/R1078): R
- antibiotic susceptibility test value (host strain YMC14/04/R1078): 128
- antibiotic susceptibility class (host strain YMC14/04/R1080): R
- antibiotic susceptibility test value (host strain YMC14/04/R1080): 128
- antibiotic susceptibility S/I/R (host strain YMC14/06/R2359): R
- antibiotic susceptibility value (host strain YMC14/06/R2359): 128
- susceptibility category (S/I/R) (host strain YMC14/06/R2359): R
- susceptibility test value (number given before S/I/R) (host strain YMC14/06/R2359): 128
- antibiotic susceptibility S/I/R (host strain YMC14/08/R1169): R
- antibiotic susceptibility value (host strain YMC14/08/R1169): 128
- susceptibility category (S/I/R) (host strain YMC14/08/R1169): R
- susceptibility test value (number given before S/I/R) (host strain YMC14/08/R1169): 128
- antibiotic susceptibility S/I/R (host strain YMC14/08/T90): R
- antibiotic susceptibility value (host strain YMC14/08/T90): 128
- susceptibility category (S/I/R) (host strain YMC14/08/T90): R
- susceptibility test value (number given before S/I/R) (host strain YMC14/08/T90): 128
- antibiotic susceptibility S/I/R (host strain YMC15/02/R436): R
- antibiotic susceptibility value (host strain YMC15/02/R436): 128
- susceptibility category (S/I/R) (host strain YMC15/02/R436): R
- susceptibility test value (number given before S/I/R) (host strain YMC15/02/R436): 128
- antibiotic susceptibility S/I/R (host strain YMC15/02/T28): R
- antibiotic susceptibility value (host strain YMC15/02/T28): 128
- susceptibility category (S/I/R) (host strain YMC15/02/T28): R
- susceptibility test value (number given before S/I/R) (host strain YMC15/02/T28): 128
- antibiotic susceptibility S/I/R (host strain YMC15/03/R1604): R
- antibiotic susceptibility value (host strain YMC15/03/R1604): 128
- susceptibility category (S/I/R) (host strain YMC15/03/R1604): R
- susceptibility test value (number given before S/I/R) (host strain YMC15/03/R1604): 128
- antibiotic susceptibility S/I/R (host strain YMC15/09/R1869): R
- antibiotic susceptibility value (host strain YMC15/09/R1869): 128
- susceptibility category (S/I/R) (host strain YMC15/09/R1869): R
- susceptibility test value (number given before S/I/R) (host strain YMC15/09/R1869): 128
- antibiotic susceptibility S/I/R (host strain YMC16/01/P11): R
- antibiotic susceptibility value (host strain YMC16/01/P11): 128
- susceptibility category (S/I/R) (host strain YMC16/01/P11): R
- susceptibility test value (number given before S/I/R) (host strain YMC16/01/P11): 128
- antibiotic susceptibility S/I/R (host strain YMC16/01/R123): R
- antibiotic susceptibility value (host strain YMC16/01/R123): 128
- susceptibility category (S/I/R) (host strain YMC16/01/R123): R
- susceptibility test value (number given before S/I/R) (host strain YMC16/01/R123): 128
- antibiotic susceptibility S/I/R (host strain YMC16/01/R198): R
- antibiotic susceptibility value (host strain YMC16/01/R198): 128
- susceptibility category (S/I/R) (host strain YMC16/01/R198): R
- susceptibility test value (number given before S/I/R) (host strain YMC16/01/R198): 128
- antibiotic susceptibility S/I/R (host strain YMC16/01/R353): R
